Measured values reported in patent US6306857A, “Methods for treating or preventing alzheimer's disease using substituted 1-aryl-3-piperazin-1'-yl propanones” (Molecular Geriatrics Corporation, priority 1999, dated 2001).
Where a name gives a salt, the structure may show the parent alone. Read-outs that look alike come from different tables or passages of the source.

How the values were obtained:
Format in all cases: cell-based
[1] = test system: microtubule cytoskeleton of cultured human CG neuroblastoma cells; test: Antimicrotubule activity (tubulin immunofluorescence microscopy); conditions: Neuroblastoma cell, read-out: Concentration where microtubule destabilization occurs
Procedure: The compounds of the invention according to formula I are effective in destabilizing microtubules, thus are useful in treating certain neoplastic diseases. Indirect immunofluorescence microscopy using the monoclonal antibodies to tubulin is used herein to determine the activity of the compounds of this invention in promoting depolymerization of the microtubule cytoskeleton in cultured cells. The following assay was employed.
Cultured human CG neuroblastoma cells were seeded 1:3 from confluent cultures onto sterile 11×22 mm coverslips in 6 well tissue culture plates 16 hr prior to treatment. The following day, the tissue culture medium is removed and the cells are exposed to various concentrations of compounds of this invention in Krebs Ringer Hepes (KRH) buffer containing a final concentration of 0.5% DMSO as carrier. Incubations were performed at 37° C. in a humidified 5% CO2 atmosphere for 2 hr. After incubation, the cells were fixed in 3% TEM grade formaldehyde in PBS for 45 min at room temperature.
To visualize the effects of the compounds of the invention on the microtubule cytoskeleton, the cells were processed for tubulin immunofluorescence. Briefly, the cells were permeabilized in 0.5% Triton-X 100 in PBS for 5 min. The cells were washed 2× with PBS and aldehydes reduced using 0.5 mg/ml NaBH4 in PBS for 5 min. Subsequently, the cells were blocked for 10 min in 1.5% BSA and 1.5% nonfat dry milk in PBS (blocking solution, BS) for 10 min. The cells were then incubated for 30 min at 37° C. with the monoclonal antibody Tu27B which recognizes b-tubulin (dilution 1:20 in BS). Subsequently, the cells were washed 2× in PBS and once in BS. The cells were then incubated for 30 min at 37° C. with sheep antimouse IgG conjugated to FITC. After incubation, the cells were washed 2× in PBS and once in BS and incubated. for 30 min at 37° C. with rabbit antisheep IgG conjugated to FITC. The cells were rinsed in PBS, counterstained with Hoechst 33285 in PBS (1 μg/ml), and rinsed in PBS. The coverslips were mounted in 9:1 glycerol:PBS containing 1 mg/ml p-phenylenediamine and sealed with nail polish.
The cells were viewed using a Jenalumar epifluorescence microscope equipped with the proper filters for Fluorescein Isothiocyanate (FITC) excitation and emission. Lack of effect of a compound is evidenced by the presence of an intact microtubule network in interphase cells, or a mitotic spindle dividing cells. Antineoplastic compounds of the invention at effective doses result in the disapperance of microtubules in both interphase and mitotic cells.

Proteus vulgaris SRI 180 = test: agar disc diffusion assay, P. vulgaris; conditions: SRI180, 240 ug/disc, about 24 hr at 37° C., Mueller-Hinton agar, read-out: Diameter of the zone of inhibition, P. vulgaris
Procedure: (§1) The activity of the compounds is determined using the following assay. The compound is dissolved in DMSO at a concentration of 6 mg/ml and then diluted with water to a final concentration of 3 mg/ml in 50% DMSO (% DMSO was shown not to be inhibitory to the test organisms). An aliquot (0.08 ml) of each drug solution was transferred to filter paper discs (12.7 mm diameter, Scmeicherand Schuell) for use in the agar diffusion assay. The concentration of each drug on the filter paper disc was 240 ug/disc. The test organisms included the following: Gram-positive aerobes (Staphylococcus aureus SRI 1323, Streptococcus pneumoniae SRI 1167); Gram-negative aerobe (Proteus vulgaris SRI 180); and the yeast Candida albicans SRI 523. An agar disc diffusion assay was used to evaluate the antimicrobial activity of the test compounds. Briefly, cultures were prepared from 16-20 hr agar slant cultures by inoculating in physiological saline to a turbidity equivalent to a #0.5 McFarland turbidity standard for the bacteria and a #3 McFarland standard for C. albicans. The surface of Mueller-Hinton agar (15×100 mm plates, mm) were evenly inoculated with each standardized culture using a cotton swab. Filter paper discs containing the drug concentration listed above were then placed on the inoculated agar plates along with a disc containing the solvent used to dissolve each drug. The plates were incubated at 37° C. for about 24 hr and the diameters of the zones of inhibition measured with a vernier caliper. Positive control drugs consisted of streptomycin for use with the bacterial strains and 5-fluorocytosine for use with C. albicans. The positive control drugs were assayed as described above for the compounds of the present invention using the same concentration.

[2] = test system: Streptococcus pneumoniae SRI 1167; test: agar disc diffusion assay, S. pneumoniae; conditions: 240 ug/disc, about 24 hr at 37° C.; for zone of inhibition at 240 µg/disc: Streptococcus pneumoniae, SRI1167, Mueller-Hinton agar, read-out: Diameter of the zone of inhibition, S. pneumoniae
Procedure: as §1

[3] = test system: Staphylococcus aureus SRI 1323; test: agar disc diffusion assay, S. aureus; conditions: SRI1323, 240 ug/disc, about 24 hr at 37° C., Mueller-Hinton agar, read-out: Diameter of the zone of inhibition, S. aureus
Procedure: as §1

Candida albicans SRI 523 = test: agar disc diffusion assay, C. albicans; conditions: SRI523, 240 ug/disc, about 24 hr at 37° C., Mueller-Hinton agar, read-out: Diameter of the zone of inhibition, C. albicans
Procedure: as §1

[4] = 2 hr at 37° C., 0.5% DMSO in KRH

Structure (SMILES) | minimal effective concentration [1, 4] [µM] | zone of inhibition at 240 µg/disc (Proteus vulgaris SRI 180) [mm] | zone of inhibition at 240 µg/disc [2] [mm] | zone of inhibition at 240 µg/disc [3] [mm] | zone of inhibition at 240 µg/disc (Candida albicans SRI 523) [mm] | further results
O=C(CCN1CCN(Cc2cc(F)ccc2F)CC1)c1ccsc1 [Example 38, 1-(3"-Thienyl)-3-[4'-(2'",5'"-difluorobenzyl)-1'-piperazinyl]-1-propanone dihydrochloride] | 20 |  |  |  |  | 
O=C(CCN1CCN(Cc2ccccc2)CC1)c1ccc(F)c(Br)c1 [Example 25, 1-(p-Fluoro-m-bromophenyl)-3-(4'-benzyl-1'-piperazinyl)-1-propanone dihydrochloride] |  | 16 | 36.3 | 27.5 | 26 | 
O=C(CCN1CCN(Cc2ccccc2)CC1)c1csc([N+](=O)[O-])c1 [Example 80, 1-(5"-Nitro-3"-thienyl)-3-(4'-benzyl-1'-piperazinyl)-1-propanone dihydrochloride] |  | 13.8 |  | 17.2 | 14.5 | Diameter of the zone of inhibition, S. pneumoniae (symbol) ([2]; zone too large to measure): +
O=C(CCN1CCN(C(c2ccccc2)c2ccc(Cl)cc2)CC1)c1ccc(Br)s1 (centres unmarked) [Example 78, 1-(5"-Bromo-2"-thienyl)-3-[4'-(1'"-p-chlorophenyl-1'"-phenylmethyl)-1'-piperazinyl]-1-propanone dihydrochloride] |  | 14.5 | 19.7 | 16.2 | 15.2 | 
N#Cc1cccc(C(=O)CCN2CCN(Cc3ccccc3)CC2)c1 [Example 60, 1-(m-Cyanophenyl)-3-(4'-benzyl-1'-piperazinyl)-1-propanone dihydrochloride] | 20 |  |  |  |  | 
O=C(CCN1CCN(C(=O)c2ccccc2C(F)(F)F)CC1)c1ccccc1F [Example 43, 1-(o-Fluorophenyl)-3-[4'-(o-trfuoromethylbenzoyl)-1'-piperazinyl]-1-propanone hydrochloride] |  | 15.9 | 25.3 | 17.7 | 22.5 | 
O=C(CCN1CCN(Cc2ccccc2)CC1)c1ccc([N+](=O)[O-])cc1 [Example 5, 1-(p-Nitrophenyl)-3-(4'-benzyl-1'-piperazinyl)-1-propanone dihydrochloride] | 4 | 17.3 | 29.9 | 22.8 | 17.6 | 
O=C(CCN1CCN(Cc2ccccc2)CC1)c1cc([N+](=O)[O-])c(Cl)s1 [Example 95, 1-(5"-Chloro-4"-nitro-2"-thienyl)-3-(4'-benzyl-1'-piperazinyl)-1-propanone dihydrochloride] | 20 |  |  |  |  | 
O=C(CCN1CCN(C(=O)c2c(F)cccc2F)CC1)c1ccccc1F [Example 41, 1-(o-Fluorophenyl)-3-[4'-(2",6"-difluorobenzoyl)-1'-piperazinyl]-1-propanone hydrochloride] | 20 |  |  |  |  | 
O=C(CCN1CCN(Cc2ccccc2)CC1)c1ccc(F)c2ccccc12 [Example 21, 1-(4"-Fluoronaphth-1"-yl)-3-(4'-benzyl-1'-piperazinyl)-1-propanone dihydrochloride] | 20 | 0 | 40.7 | 33.8 | 26.6 | 
O=C(CCN1CCN(Cc2ccccc2)CC1)c1ccc(Nc2ccc([N+](=O)[O-])cc2[N+](=O)[O-])cc1 [Example 113, 1-(4"-[2'",4'"-Dinitrophenylamino]phenyl)-3-(4'-benzyl-1'-piperazinyl)-1-propanone dihydrochloride] |  |  |  |  |  | minimal effective concentration ([1]; 2 h): 20 µM
O=C(CCN1CCN(Cc2ccccc2)CC1)c1conc1-c1ccccc1 [Example 112, 1-(3"-Phenylisoxazol-4"-yl)-3-(4'-benzyl-1'-piperazinyl)-1-propanone dihydrochloride] | 20 |  |  |  |  | 
O=C(CCN1CCN(Cc2ccccc2)CC1)c1cccs1 [Example 7, 1-(2"-Thienyl)-3-(4'-benzyl-1'-piperazinyl)-1-propanone dihydrochloride] | 20 |  |  |  |  | 
N#Cc1ccc(C(=O)CCN2CCN(Cc3ccccc3)CC2)s1 [Example 85, 1-(5"-Cyano-2"-thienyl)-3-(4'-benzyl-1'-piperazinyl)-1-propanone dihydrochloride] | 20 |  |  |  |  | 
O=C(CCN1CCN(Cc2ccccc2)CC1)c1ccc(C2CCCCC2)cc1 [Example 27, 1-(p-Cyclohexylphenyl)-3-(4'-benzyl-1'-piperazinyl)-1-propanone dihydrochloride] | 20 |  |  |  |  | 
